From patent publication US9637493B2, “Substituted pyrrolopyrimidines as HDM2 inhibitors” (Merck Sharp & Dohme Corp., priority 2012, dated 2017) come the findings set out here.

Sequence of HDM2 (Q00987 17-125): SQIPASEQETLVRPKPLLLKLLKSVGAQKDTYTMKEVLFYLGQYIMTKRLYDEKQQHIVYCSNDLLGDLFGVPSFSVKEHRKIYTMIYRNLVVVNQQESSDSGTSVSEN

This assay addresses HDM2 (Homo sapiens (Human), UniProt Q00987). Briefly: HDM2 FRET assay (inhibition of p53 peptide binding to HDM2). The following applies: truncated HDM2 residues 17 to 125, 0.5 nM; FITC labeled 8-mer peptide 3 nM; two hour incubation at room temperature. On the procedure: Methods: An HDM2 FRET assay was developed to assess the compounds' inhibitory activity towards binding of p53 protein. […] (containing p53 binding surface, Science (1994) 265, 346-355), with N-terminal His and Thioredoxin tag was generated in pET32a expression vector and expressed in E. coli strain BL21(DE3)Rosetta. Protein was purified using Ni-affinity chromatography, followed by size exclusion chromatography using Superdex 75 26/60 column. […] After two hour incubation at room temperature in a humidified chamber plates were read on EnVision plate reader with the following settings: excitation: UV, […], two emission filters: 520 nm and 495 nm respectively. […] IC50 DETERMINATIONS: Dose-response curves were plotted from the inhibition data, from 10 point serial dilutions of inhibitory compounds. Concentration of compound was plotted against em520/Cem495 ratio signal. To generate IC50 values, the dose-response curves were fitted to a standard sigmoidal curve and IC50 values were derived by nonlinear regression analysis.
As usually defined, the IC50 is the point on the concentration scale where inhibition reaches its midpoint. Read a high IC50 as a need for much substance. In the case of `Cc1cccc(-c2cc3nc(C(=O)O)nc(N[C@H](C)C4CCC4)c3n2Cc2ccc(C(F)F)cc2)c1` [Example 3.2, 4-{[(1R)-1-cyclobutylethyl]amino}-5-[4-(difluoromethyl)benzyl]-6-(3-methylphenyl)-5H-pyrrolo[3,2-d]pyrimidine-2-carboxylic acid], the IC50 amounted to 530 nM. Regarding `CC(C)Cc1cn(C[C@H]2CC[C@H](C)CC2)c2c(-c3cncc(Cl)c3)nc(-c3noc(=O)[nH]3)nc12` [Example 5.8, 3-[4-(5-chloropyridin-3-yl)-5-[(trans-4-methylcyclohexyl)methyl]-7-(2-methylpropyl)-5H-pyrrolo[3,2-d]pyrimidin-2-yl]-1,2,4-oxadiazol-5(4H)-one], the IC50 amounted to 35 nM.

`C[C@H]1CC[C@H](Cn2ccc3nc(C(=O)O)nc(-c4cccc(Cl)c4)c32)CC1` [Example 4.1, 4-(3-chlorophenyl)-5-[(trans-4-methylcyclohexyl)methyl]-5H-pyrrolo[3,2-d]pyrimidine-2-carboxylic acid] came in with an IC50 of 294 nM. Compared with the last molecule, the IC50 is about 8.4-fold higher. `Cc1cccc(-c2cc3nc(C(=O)O)nc(N[C@H](C)C4CCC4)c3n2Cc2ccc(OC(F)(F)F)c(F)c2)c1` [Example 2.4, 4-{[(1R)-1-cyclobutylethyl]amino}-5-[3-fluoro-4-(trifluoromethoxy)benzyl]-6-(3-methylphenyl)-5H-pyrrolo[3,2-d]pyrimidine-2-carboxylic acid] gave an IC50 of 267 nM.

Molecule `Cc1ccnc(-c2cc3nc(C(=O)O)nc(N[C@H](C)C4CCC4)c3n2Cc2ccc(C(F)(F)F)cc2)c1` [Example 1.9, 4-{[(1R)-1-cyclobutylethyl]amino}-6-(4-methylpyridin-2-yl)-5-[4-(trifluoromethyl)benzyl]-5H-pyrrolo[3,2-d]pyrimidine-2-carboxylic acid] registered an IC50 of 18 nM. Compared with the last molecule, the IC50 is about 15-fold lower. Take `C[C@H]1CC[C@H](Cn2cc(Cc3cccnc3)c3nc(-c4noc(=O)[nH]4)nc(-c4cncc(Cl)c4)c32)CC1` [Example 7.1, 3-[4-(5-chloropyridin-3-yl)-5-[(trans-4-methylcyclohexyl)methyl]-7-(pyridin-3-ylmethyl)-5H-pyrrolo[3,2-d]pyrimidin-2-yl]-1,2,4-oxadiazol-5(4H)-one]: the IC50 is 52 nM.

`C[C@H]1CC[C@H](Cn2c(C(F)c3ccccc3F)cc3nc(C(=O)O)nc(-c4cncc(Cl)c4)c32)CC1` (mixture of isomers) [Example 8.1, 4-(5-chloropyridin-3-yl)-6-[fluoro(2-fluorophenyl)methyl]-5-[(trans-4-methylcyclohexyl)methyl]-5H-pyrrolo[3,2-d]pyrimidine-2-carboxylic acid] displayed an IC50 of 3 nM. In turn, `Cc1cccc(-c2cc3nc(C(=O)O)nc(N[C@H](C)C4CCC4)c3n2Cc2ccc(C(F)(F)F)nc2)c1` [Example 3.3, 4-{[(1R)-1-cyclobutylethyl]amino}-6-(3-methylphenyl)-5-{[6-(trifluoromethyl)pyridin-3-yl]methyl}-5H-pyrrolo[3,2-d]pyrimidine-2-carboxylic acid] came in with an IC50 of 178 nM. This IC50 lies about 59-fold higher than the previous one. `Cc1cn(C[C@H]2CC[C@H](C)CC2)c2c(-c3cncc(Cl)c3)nc(C(=O)O)nc12` [Example 5.3, 4-(5-chloropyridin-3-yl)-7-methyl-5-[(trans-4-methylcyclohexyl)methyl]-5H-pyrrolo[3,2-d]pyrimidine-2-carboxylic acid]: the IC50 came to 88 nM. To `Cc1cccc(-c2cc3nc(C(=O)O)nc(N[C@H](C)C4CCC4)c3n2Cc2ccc(F)c(F)c2)c1` [Example 3.5, 4-{[(1R)-1-cyclobutylethyl]amino}-5-(3,4-difluorobenzyl)-6-(3-methylphenyl)-5H-pyrrolo[3,2-d]pyrimidine-2-carboxylic acid] belongs 126 nM; to `CC(C)Cc1cn(C[C@H]2CC[C@H](C)CC2)c2c(-c3cncc(Cl)c3)nc(C(=O)O)nc12` [Example 5.7, 4-(5-chloropyridin-3-yl)-5-[(trans-4-methylcyclohexyl)methyl]-7-(2-methylpropyl)-5H-pyrrolo[3,2-d]pyrimidine-2-carboxylic acid], 71 nM. For the molecule `Cc1cccc(-c2cc3nc(C(=O)O)nc(N[C@H](C)C4CCC4)c3n2Cc2ccc(C(F)(F)F)cc2N)c1` [Example 2.1, 5-[2-amino-4-(trifluoromethyl)benzyl]-4-{[(1R)-1-cyclobutylethyl]amino}-6-(3-methylphenyl)-5H-pyrrolo[3,2-d]pyrimidine-2-carboxylic acid], the IC50 stood at 11 nM.

Consider `C[C@H]1CC[C@H](Cn2ccc3nc(-c4noc(=O)[nH]4)nc(-c4cncc(Cl)c4)c32)CC1` [Example 4.4, 3-{4-(5-chloropyridin-3-yl)-5-[(trans-4-methylcyclohexyl)methyl]-5H-pyrrolo[3,2-d]pyrimidin-2-yl}-1,2,4-oxadiazol-5(4H)-one], for which the IC50 is 57 nM. Molecule `Cc1c(-c2cc(C(C)C)ccn2)n(Cc2ccc(C(F)(F)F)cc2)c2c(N[C@H](C)C3CCC3)nc(C(=O)O)nc12` [Example 1.11, 4-{[(1R)-1-cyclobutylethyl]amino}-7-methyl-6-[4-(1-methylethyl)pyridin-2-yl]-5-[4-(trifluoromethyl)benzyl]-5H-pyrrolo[3,2-d]pyrimidine-2-carboxylic acid] registered an IC50 of 50 nM. As to `C[C@H]1CC[C@H](Cn2cc(CCc3cccnc3)c3nc(C(=O)O)nc(-c4cncc(Cl)c4)c32)CC1` [Example 6.1, 4-(5-chloropyridin-3-yl)-5-[(trans-4-methylcyclohexyl)methyl]-7-(2-pyridin-3-ylethyl)-5H-pyrrolo[3,2-d]pyrimidine-2-carboxylic acid], the IC50 worked out at 47 nM. This IC50 and that of the molecule before are within 1.5-fold of each other.

In the case of `Cc1ccc(F)c(-c2cc3nc(C(=O)O)nc(N[C@H](C)C4CCC4)c3n2Cc2ccc(C(F)(F)F)cc2)c1` [Example 1.1, (R)-4-((1-cyclobutylethyl)amino)-6-(2-fluoro-5-methylphenyl)-5-(4-(trifluoromethyl)benzyl)-5H-pyrrolo[3,2-d]pyrimidine-2-carboxylic acid], the IC50 came to 62 nM. This IC50 and that of the molecule before are within 1.5-fold of each other. Next, `C[C@H]1CC[C@H](Cn2c(C(F)c3ccccc3F)cc3nc(-c4noc(=O)[nH]4)nc(-c4cncc(Cl)c4)c32)CC1` (stereo partly drawn) [Example 8.2, 3-{4-(5-chloropyridin-3-yl)-6-[fluoro(2-fluorophenyl)methyl]-5-[(trans-4-methylcyclohexyl)methyl]-5H-pyrrolo[3,2-d]pyrimidin-2-yl}-1,2,4-oxadiazol-5(4H)-one]: 2 nM. For `Cc1cn(C[C@H]2CC[C@H](C)CC2)c2c(-c3cccc(Cl)c3)nc(C(=O)O)nc12` [Example 5.1, 4-(3-chlorophenyl)-7-methyl-5-[(trans-4-methylcyclohexyl)methyl]-5H-pyrrolo[3,2-d]pyrimidine-2-carboxylic acid], the IC50 was determined as 226 nM. `Cc1cccc(-c2cc3nc(C(=O)O)nc(N[C@H](C)C4CCC4)c3n2Cc2ccc(Br)c(F)c2)c1` [Example 3.4, 5-(4-bromo-3-fluorobenzyl)-4-{[(1R)-1-cyclobutylethyl]amino}-6-(3-methylphenyl)-5H-pyrrolo[3,2-d]pyrimidine-2-carboxylic acid] registered an IC50 of 15 nM. In turn, `C[C@H]1CC[C@H](Cn2ccc3nc(C(=O)O)nc(-c4cncc(Cl)c4)c32)CC1` [Example 4.3, 4-(5-chloropyridin-3-yl)-5-[(trans-4-methylcyclohexyl)methyl]-5H-pyrrolo[3,2-d]pyrimidine-2-carboxylic acid] displayed an IC50 of 247 nM. Next, `Cc1cccc(-c2cc3nc(C(=O)O)nc(N[C@H](C)C4CCC4)c3n2Cc2ccc(Cl)c(F)c2)c1` [Example 3.1, 5-(4-chloro-3-fluorobenzyl)-4-{[(1R)-1-cyclobutylethyl]amino}-6-(3-methylphenyl)-5H-pyrrolo[3,2-d]pyrimidine-2-carboxylic acid]: 21 nM; `CC(C)c1ccnc(-c2cc3nc(C(=O)O)nc(N[C@H](C)C4CCC4)c3n2Cc2ccc(C(F)(F)F)cc2)c1` [Example 1.10, 4-{[(1R)-1-cyclobutylethyl]amino}-6-[4-(1-methylethyl)pyridin-2-yl]-5-[4-(trifluoromethyl)benzyl]-5H-pyrrolo[3,2-d]pyrimidine-2-carboxylic acid]: 26 nM; `Cc1cn(C[C@H]2CC[C@H](C)CC2)c2c(-c3cccc(Cl)c3)nc(-c3noc(=O)[nH]3)nc12` [Example 5.2, 3-{4-(3-chlorophenyl)-7-methyl-5-[(trans-4-methylcyclohexyl)methyl]-5H-pyrrolo[3,2-d]pyrimidin-2-yl}-1,2,4-oxadiazol-5(4H)-one]: 107 nM. As for `COc1cc(OC(F)(F)F)ccc1Cn1c(-c2cccc(C)c2)cc2nc(C(=O)O)nc(N[C@H](C)C3CCC3)c21` [Example 2.5, 4-{[(1R)-1-cyclobutylethyl]amino}-5-[2-methoxy-4-(trifluoromethoxy)benzyl]-6-(3-methylphenyl)-5H-pyrrolo[3,2-d]pyrimidine-2-carboxylic acid], the IC50 stood at 4370 nM. To `Cc1cccc(-c2cc3nc(C(=O)O)nc(N[C@H](C)C4CCC4)c3n2Cc2ccc(OC(F)F)cc2)c1` [Example 2.6, 4-{[(1R)-1-cyclobutylethyl]amino}-5-[4-(difluoromethoxy)benzyl]-6-(3-methylphenyl)-5H-pyrrolo[3,2-d]pyrimidine-2-carboxylic acid] belongs 1780 nM. Next, `Cc1cccc(-c2cc3nc(C(=O)O)nc(N[C@H](C)C4CCC4)c3n2Cc2ccc(C(F)(F)F)cc2)c1` [Example 1.3, (R)-4-((1-cyclobutylethyl)amino)-6-(m-tolyl)-5-(4-(trifluoromethyl)benzyl)-5H-pyrrolo[3,2-d]pyrimidine-2-carboxylic acid]: 140 nM.
